Data from patent US5082848A, “Substituted 4-aminoquinoline derivatives as gastric acid secretion inhibitors” (Smith Kline & French Laboratories, Ltd., priority 1988, dated 1992).

Columns and labels:
H^+ K^+ ATPase = target: T1, H^+ K^+ ATPase (Sus scrofa, UniProt P19156); test: K^+ -stimulated ATPase activity in lyophilised gastric vesicles; assay type: biochemical; conditions: lyophilised gastric vesicles from pig fundic mucosa, 37° C., pH 7.0, 30 minutes
T1 construct: Lyophilised gastric vesicles were prepared from pig fundic mucosa; from tissue; host or cells: pig fundic (gastric) mucosa, lyophilised gastric vesicles
T1 sequence (P19156 2-1034 limits assumed): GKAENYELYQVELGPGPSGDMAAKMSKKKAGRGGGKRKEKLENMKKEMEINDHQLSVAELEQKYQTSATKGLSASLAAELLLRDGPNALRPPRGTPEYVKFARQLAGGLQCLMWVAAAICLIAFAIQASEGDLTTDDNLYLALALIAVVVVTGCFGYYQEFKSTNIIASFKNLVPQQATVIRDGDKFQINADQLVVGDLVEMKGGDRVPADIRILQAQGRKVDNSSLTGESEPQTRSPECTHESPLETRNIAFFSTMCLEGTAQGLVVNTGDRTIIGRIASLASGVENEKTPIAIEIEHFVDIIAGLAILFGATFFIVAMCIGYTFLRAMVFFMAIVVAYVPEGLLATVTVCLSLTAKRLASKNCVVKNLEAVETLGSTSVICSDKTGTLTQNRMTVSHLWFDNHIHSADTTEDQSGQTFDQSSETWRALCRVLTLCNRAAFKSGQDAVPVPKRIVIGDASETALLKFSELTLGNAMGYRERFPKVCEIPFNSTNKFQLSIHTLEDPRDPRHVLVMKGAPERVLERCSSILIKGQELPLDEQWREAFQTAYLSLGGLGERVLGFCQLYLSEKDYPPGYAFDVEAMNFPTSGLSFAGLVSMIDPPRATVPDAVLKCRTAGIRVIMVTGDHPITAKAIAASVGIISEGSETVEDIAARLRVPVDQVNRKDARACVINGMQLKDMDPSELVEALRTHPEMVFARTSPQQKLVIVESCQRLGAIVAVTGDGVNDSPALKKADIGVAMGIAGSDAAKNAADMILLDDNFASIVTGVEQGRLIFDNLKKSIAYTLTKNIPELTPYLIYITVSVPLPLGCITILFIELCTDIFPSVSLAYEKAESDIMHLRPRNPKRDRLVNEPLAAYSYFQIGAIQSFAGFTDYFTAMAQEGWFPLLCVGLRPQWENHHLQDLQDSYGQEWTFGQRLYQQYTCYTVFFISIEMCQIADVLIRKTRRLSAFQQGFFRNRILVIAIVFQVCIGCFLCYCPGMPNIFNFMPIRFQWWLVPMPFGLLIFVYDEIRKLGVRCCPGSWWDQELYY
T1 sequence (P18434 whole entry partner): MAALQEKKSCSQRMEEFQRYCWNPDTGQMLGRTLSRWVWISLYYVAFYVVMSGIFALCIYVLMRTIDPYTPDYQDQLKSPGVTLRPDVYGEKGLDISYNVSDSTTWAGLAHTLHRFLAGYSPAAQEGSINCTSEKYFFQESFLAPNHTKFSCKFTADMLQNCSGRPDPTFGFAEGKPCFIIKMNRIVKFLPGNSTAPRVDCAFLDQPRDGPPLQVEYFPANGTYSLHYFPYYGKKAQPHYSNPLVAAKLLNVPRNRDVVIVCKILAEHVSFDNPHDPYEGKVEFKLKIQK
Method: The effects of a single high concentration (100 μM) of a compound of structure (I) on K^+ -stimulated ATPase activity in lyophilised gastric vesicles was determined. Preferred compounds of structure (I) were also tested over a range of concentrations to determine IC50 values.
Lyophilised gastric vesicles were prepared from pig fundic mucosa after the method of Keeling et. al. (Biochem. Pharmacol., 34, 2967, 1985).
K^+ -stimulated ATPase activity was determined at 37° C. in the presence of the following: 10 mM Pipes/Tris buffer pH 7.0, 2 mM MgSO4, 1 mM KCl, 2 mM Na2 ATP and 3-6 μg protein/ml lyophilised gastric vesicles. After incubation for 30 minutes, the inorganic phosphate hydrolysed from ATP was determined by the method of Yoda and Hokin (Biochem. Biophys. Res. Commun. 40, 880, 1970).
Compounds of structure (I) were dissolved in dimethylsulphoxide which up to the highest concentration
used had no effect on K^+ -stimulated ATPase activity.
The effect of the highest concentration of each compound of structure (I) on the recovery of a standard amount of inorganic phosphate was also determined.

[1] = system: pentagastrin stimulated gastric acid secretion; test: Rat Lumen Perfused Stomach (pentagastrin stimulated gastric acid secretion); assay type: in vivo; conditions: i.v. administration, 10 μmole/kg
Excerpt: B. Rat Lumen Perfused Stomach (pentagastrin stimulated gastric acid secretion).
Using a modification of the procedure described by Ghosh & Schild (Br. J. Pharmacology, 13, 54, 1958), the compounds of the following examples were found on i.v. administration at a concentration of 10 μmole/kg to cause an inhibition of pentagastrin stimulated gastric acid secretion as follows: […]

Structure (SMILES)	IC50 (H^+ K^+ ATPase) [µM]	% inhibition of pentagastrin stimulated gastric acid secretion [1] [%]
CCCC(=O)c1cnc2c(OC)cccc2c1Nc1cccc(CO)c1C [Example 6, 3-butyryl-4-(3-hydroxymethyl-2-methylphenylamino)-8-methoxyquinoline]	6	
CCCC(=O)c1cnc2c(OC)cccc2c1Nc1ccc2c(c1)OCO2 [Example 3, 3-butyryl-4-(3,4-(methylenedioxy)phenylamino)-8-methoxyquinoline]	3.6	20
CCCC(=O)c1cnc2c(OC)cccc2c1Nc1ccccc1COC [Example 2, 3-butyryl-4-(2-methoxymethylphenylamino)-8-methoxyquinoline]	5.5	43
CCCC(=O)c1cnc2c(OC)cccc2c1Nc1c(C)cc2c(c1C)OCO2 [Example 5, 3-butyryl-4-(3,4-methylenedioxy-2,6-dimethylphenylamino)-8-methoxyquinoline]	2.7	44
CCCC(=O)c1cnc2c(OC)cccc2c1Nc1ccc(CO)cc1 [Example 4, 3-butyryl-4-(4-hydroxymethylphenylamino)-8-methoxyquinoline]		51
CCCC(=O)c1cnc2c(OC)cccc2c1Nc1cc(CO)ccc1C [Example 7, 3-butyryl-4-(5-hydroxymethyl-2-methylphenylamino)-8-methoxyquinoline]	10.2	25
CCCC(=O)c1cnc2c(OC)cccc2c1Nc1ccccc1CO [Example 1, 3-butyryl-4-(2-(hydroxymethyl)phenylamino)-8-methoxyquinoline]	12	33
